# In US7968097B2, “Identification of Hla-A2-presented T-cell epitopes derived from the oncofoetal antigen-immature laminin receptor protein and uses thereof” (Immatics Biotechnologies GmbH, priority 2005, dated 2011):
# “Also recorded” adds a separate entry of the source.
# Test system: PBMC of HLA-A*02 positive healthy donors
# Assay: IFN-γ ELISPOT, healthy donors
# Settings: peripheral blood samples of healthy donors, IFN-γ ELISPOT
# Method: To determine the frequency of OFA/iLR peptide-specific T cells in patients, ELISPOT-assays were performed using the Interferon-γ-ELISPOT-Kit (Becton Dickinson, Heidelberg, Germany) according to manufacturer's instructions.
# Prior to analysis, T cells from patients and healthy donors had been kept in culture for seven days in the presence of Interleukin-2 (IL microgram/10^6 PBMC/milliliter).
row,Sequence,CTL / spontaneous T cell responses against peptide in healthy individuals
1,ALCNTDSPL (listed as Homo sapiens) [ILR2],no spontaneous T cell responses; also recorded: low numbers of CTL
2,LLAARAIVAI (listed as Homo sapiens) [ILR1],no spontaneous T cell responses; also recorded: low numbers of CTL
